Data: patent publication EP0118120A2, “1,4-Dihydropyridine compound” (priority 1983, dated 1984)

Legend:
[1] = tested on: liver disorder induced by carbon tetrachloride; assay: Effect on liver disorder induced by carbon tetrachloride in rats, serum GOT, GPT, AlP, bilirubin (Example 26); format: in vivo, SLC-Wistar male rats; settings: rats 9 weeks old
Method: (§1) Effect of the compounds according to the present invention on liver disorder induced by carbon tetrachloride
(§2) The effects of the sample compounds to be tested on hepatic disorder were evaluated by determining the levels of GOT, GPT, AlP, and bilirubin, which are known as an indicator of hepatic disorder, in serum, after administering carbon tetrachloride and the sample compounds to SLC-Wistar male rats (9 weeks old and body weight of 210 to 250 g in Tables 1, 3, and 4, and 10 weeks old and body weight of 230 to 260 g in Table 2) as follows.
(§3) Five rats were used in each test group. The sample compound (i.e., each compound listed below) was suspended at a concentration of 40 mg/ml in a 0.1% aqueous solution of Tween-80 (i.e., nonionic surfactant available from Atlas Powder Co., Ltd.). The resultant suspension was orally administered at a dose of 200 mg/kg each at 25 hours and 1 hour before the administration of carbon tetrachloride, except for the control group. For the control group to which only carbon tetrachloride was administered in the evaluation test, a 0.1% aqueous Tween-80 was orally administered at a dose of 5 ml/kg in the same manner.
(§4) Carbon tetrachloride was intraperiotoneally administered as a 10% olive oil solution at a dose of 5 ml/kg (0.5 ml/kg in terms of CC14) one hour after the final administration of the sample compound. For the control (normal) group, olive oil was intraperitoneally administered in the same manner at a dose of 5 ml/kg.
(§5) Blood samples were collected from the carotid artery under pentobarbital anesthesia, 24 hours after the administration of carbon tetrachloride. The rats were fasted for 18 to 22 hours before collecting the blood samples.
(§6) The determination of GOT and GPT in serum was carried out according to a UV method, the determination of AlP was carried cut according to Bessy-Lowry method, and the determination of bilirubin was carried out according to a diazo method.

[2] = Acute toxicity, oral LD50 in rats (Example 29); format: in vivo; settings: rat, in vivo, male rats 5 weeks old, 100 to 125 g, observed for one week
Excerpt: (§7) Acute toxicity of the compounds according to the present invention

SLC-Wistar male rats = assay: Acute toxicity, oral LD50 in rats (Example 29); format: in vivo; settings: male rats 5 weeks old, 100 to 125 g, observed for one week, 10080 min
Excerpt: as §7

[3] = tested on: liver disorder induced by carbon tetrachloride; assay: Effect on liver disorder induced by carbon tetrachloride in rats, repeat with 8 weeks old rats (Example 27); format: in vivo, SLC-Wistar male rats; settings: Table 5, serum 24 hours after CCl4, 200 mg/kg orally x2, rats 8 weeks old; for GOT: 170 to 210 g, CCl4 only 27875 ± 3628, normal 78 ± 3; for Bilirubin: CCl4 only 0.55 ± 0.16, normal 0.10 ± 0.00; for AlP: CCl4 only 41.3 ± 2.5, normal 25.7 ± 0.4; for GPT: CCl4 only 12984 ± 1465, normal 30 ± 3
Method: as §2, §3, §4, §5, §6, §1
The evaluation tests of Example 26 were repeated except that SLC-Wistar male rats (8 weeks old and body weight of 170 to 210 g) were used.

[4] = Acute toxicity, oral LD50 in rats (Example 28); settings: rat, in vivo, male rats 5 weeks old, 130 to 150 g, observed for one week
Excerpt: as §7

[5] = Table 3, serum 24 hours after CCl4, 200 mg/kg orally x2, CCl4 only 0.38 ± 0.06, normal 0.22 ± 0.04
[6] = Table 3, serum 24 hours after CCl4, 200 mg/kg orally x2, CCl4 only 34.4 ± 2.6, normal 27.0 ± 0.5
[7] = Table 3, serum 24 hours after CCl4, 200 mg/kg orally x2, CCl4 only 9188 ± 1815, normal 30 ± 2
[8] = Table 3, serum 24 hours after CCl4, 200 mg/kg orally x2, CCl4 only 13189 ± 2205, normal 81 ± 3
[9] = Table 4, serum 24 hours after CCl4, 200 mg/kg orally x2, CCl4 only 0.38 ± 0.04, normal 0.10 ± 0.00
[10] = Table 4, serum 24 hours after CCl4, 200 mg/kg orally x2, CCl4 only 35.0 ± 2.0, normal 24.4 ± 0.7
[11] = Table 4, serum 24 hours after CCl4, 200 mg/kg orally x2, CCl4 only 10523 ± 2313, normal 31 ± 3
[12] = Table 4, serum 24 hours after CCl4, 200 mg/kg orally x2, CCl4 only 17704 ± 4140, normal 76 ± 4

COCOC(=O)C1=C(C)NC(C)=C(C(=O)OCOC)C1C1=COCCO1 [Sample Compound F, bis(methoxymethyl) 4-[2-(5,6-dihydro-p-dioxinyl)]-2,6-dimethyl-1,4-dihydrcpyridine-3,5-dicarboxylate]
Bilirubin [1, 5]: 0.22 ± 0.05 mg/dL
AlP [1, 6]: 26.4 ± 1.0 K-AU.
GPT [1, 7]: 274 ± 99 K.U.
GOT [1, 8]: 432 ± 107 K.U.
LD50 at 168 h [2]: > 2000 mg/kg

3,5-dicyano-4-[2-(5,6-dihydro-p--dioxinyl)]-2,6-dimethyl-1,4-dihvdropyridine [Sample Compound A]
GOT ([1]; Table 1, serum 24 hours after CCl4 0.5 ml/kg i.p., compound 200 mg/kg orally 25 hours and 1 hour before CCl4, CCl4 only 17327 ± 2336, normal 76 ± 1): 3874 ± 792 K.U.
Bilirubin ([1]; Table 1, serum 24 hours after CCl4, 200 mg/kg orally x2, CCl4 only 0.62 ± 0.30, normal 0.10 ± 0.00): 0.24 ± 0.02 mg/dL
AlP ([1]; Table 1, serum 24 hours after CCl4, 200 mg/kg orally x2, CCl4 only 35.5 ± 2.5, normal 23.6 ± 0.4): 31.4 ± 0.9 K-AU.
GPT ([1]; Table 1, serum 24 hours after CCl4, 200 mg/kg orally x2, CCl4 only 10496 ± 1221, normal 31 ± 2): 2380 ± 472 K.U.
LD50 (SLC-Wistar male rats): more than 1000 mg/kg

COCN1C(C)=C(C(C)=O)C(C2=COCCO2)C(C(C)=O)=C1C [Sample Compound R, 3,5-diacetyl-4-[2-(5,6-dihydro-p-dioxinyl)]-1-methoxymethyl-2,6-dimethyl-1,4-dihydropyridine]
GOT [3]: 425 ± 124 K.U.
Bilirubin [3]: 0.16 ± 0.02 mg/dL
AlP [3]: 31.4 ± 1.6 K-AU.
GPT [3]: 260 ± 98 K.U.
LD50 at 168 h [2]: > 1500 mg/kg

CC(=O)C1=C(C)NC(C)=C(C(C)=O)C1C1=C(C)OC(C)CO1 (centres unmarked) [Sample Compound O, 3,5-diacetyl-2,6-dimethyl-4-2-(3,5-dimethyl-5,6-dihydro-p-dioxinyl) -1,4-dihydro pyridine]
Bilirubin [1, 5]: 0.26 ± 0.02 mg/dL
AlP [1, 6]: 37.2 ± 1.6 K-AU.
GPT [1, 7]: 410 ± 64 K.U.
GOT [1, 8]: 565 ± 98 K.U.
LD50 at 168 h [2]: > 2000 mg/kg

COCC1=C(C2C(C(C)=O)=C(C)NC(C)=C2C(C)=O)OCCO1 [Sample Compound V, 3,5-diacetyl-4-2-(3-methoxy-methvl-5,6-dihydro-p-dioxinyl) -2,6-dimethyl-l,4-dihydropyridine]
GOT [3]: 2036 ± 677 K.U.
Bilirubin [3]: 0.15 ± 0.03 mg/dL
AlP [3]: 35.6 ± 1.4 K-AU.
GPT [3]: 1251 ± 414 K.U.
LD50 at 168 h [2]: > 2000 mg/kg

C#CCOC(=O)C1=C(C)NC(C)=C(C(=O)OCC#C)C1C1=COCCO1 [Sample Compound I, dipropargyl 4-[2-(5,6-dihydro-p-dioxinyl)]-2,6-dimethyl-l,4-dihydropyridine-3,5-dicarboxylate]
LD50 at 168 h [4]: > 2000 mg/kg
Bilirubin [1, 9]: 0.22 ± 0.02 mg/dL
AlP [1, 10]: 27.6 ± 1.8 K-AU.
GPT [1, 11]: 2110 ± 228 K.U.
GOT [1, 12]: 2925 ± 380 K.U.

C=CCOC(=O)C1=C(C)NC(C)=C(C(=O)OCC=C)C1C1=COCCO1 [Sample Compound H, diallyl 4-[2-(5,6-dihydro-p-dioxinyl)]-2,6-dimethyl-l,4-dihydropyridine-3,5-dicarboxylate]
LD50 at 168 h [4]: > 1000 mg/kg
Bilirubin [1, 9]: 0.22 ± 0.04 mg/dL
AlP [1, 10]: 29.5 ± 2.4 K-AU.
GPT [1, 11]: 1453 ± 699 K.U.
GOT [1, 12]: 1920 ± 881 K.U.
